{"source": "paper PMC8544188", "about": "(Molecular Diversity, 2021)", "key": {"[1]": {"target": "T1, α-glucosidase (Saccharomyces cerevisiae, UniProt P53341)", "T1 sequence (P53341 whole entry)": "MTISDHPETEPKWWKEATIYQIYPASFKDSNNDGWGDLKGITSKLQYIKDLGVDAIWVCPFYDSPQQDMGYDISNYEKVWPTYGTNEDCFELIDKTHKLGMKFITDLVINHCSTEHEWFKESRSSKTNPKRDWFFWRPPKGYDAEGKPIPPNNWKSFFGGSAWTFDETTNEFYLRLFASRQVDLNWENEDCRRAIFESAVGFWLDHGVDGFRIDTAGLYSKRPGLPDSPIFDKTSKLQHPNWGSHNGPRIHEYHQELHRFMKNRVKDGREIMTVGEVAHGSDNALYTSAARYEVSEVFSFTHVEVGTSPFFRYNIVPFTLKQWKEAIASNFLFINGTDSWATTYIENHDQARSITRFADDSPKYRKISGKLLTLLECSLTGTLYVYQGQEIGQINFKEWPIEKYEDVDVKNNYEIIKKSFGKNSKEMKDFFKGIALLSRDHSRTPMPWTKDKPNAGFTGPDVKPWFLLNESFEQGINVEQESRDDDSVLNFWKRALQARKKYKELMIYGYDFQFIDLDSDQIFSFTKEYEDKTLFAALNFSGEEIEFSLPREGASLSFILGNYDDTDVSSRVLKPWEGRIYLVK", "assay": "α-glucosidase inhibition assay", "type": "biochemical"}, "[2]": {"target": "T1, α-glucosidase", "assay": "Enzyme kinetic studies", "type": "biochemical", "settings": "Lineweaver–Burk plot: Km increased, Vmax unchanged"}}, "note": "“Also recorded” adds a separate entry of the source.", "data": [{"smiles": "N#CC(C(N)=O)c1c(-c2ccccc2)[nH]c2c1c(=O)oc1ccccc12", "note": "(stereo not shown) [4a, 2-cyano-2-(4-oxo-2-phenyl-1,4-dihydrochromeno[4,3-b]pyrrol-3-yl)acetamide]", "values": [{"measurement": "fold improvement in inhibitory potency compared to acarbose (positive control)", "setting": "[1]; ratio of IC50 values versus acarbose", "value": "around fivefold"}]}, {"smiles": "N#CCc1c(-c2ccccc2)[nH]c2c1c(=O)oc1ccc(Cl)cc12", "note": "[5b, 2-(8-chloro-4-oxo-2-phenyl-1,4-dihydrochromeno[4,3-b]pyrrol-3-yl)acetonitrile]", "values": [{"measurement": "α-glucosidase inhibitory activity in words", "setting": "[1]", "value": "diminished the inhibitory activity completely"}]}, {"smiles": "N#CCc1c(-c2ccc(Cl)cc2)[nH]c2c1c(=O)oc1ccccc12", "note": "[5d, 2-(2-(4-chlorophenyl)-4-oxo-1,4-dihydrochromeno[4,3-b]pyrrol-3-yl)acetonitrile]", "values": [{"measurement": "fold increase in potency compared to 5a", "setting": "[1]; ratio of IC50 values versus 5a", "value": "around fivefold"}]}, {"smiles": "COc1ccc(-c2[nH]c3c(c2CC#N)c(=O)oc2ccccc23)cc1", "note": "[5e, 2-(2-(4-methoxyphenyl)-4-oxo-1,4-dihydrochromeno[4,3-b]pyrrol-3-yl)acetonitrile]", "values": [{"measurement": "mode of inhibition", "setting": "[2]", "value": "competitive inhibition; also recorded: competitive inhibitor"}]}]}
